Laboratory results published in publication PMC11597210, “A Comprehensive Evaluation of a Coumarin Derivative and Its Corresponding Palladium Complex as Potential Therapeutic Agents in the Treatment of Gynecological Cancers: Synthesis, Characterization, and Cytotoxicity” (Pharmaceutics, 2024).

Columns and labels:
[1] = tested on: Peritoneal exudate cells (PECs); test: Crystal violet (CV) viability assay on primary cells, 72 h; assay type: cell-based, C57BL/6 mice; settings: mouse peritoneal exudate cells, read-out: IC50 PEC CV
Experimental: Peritoneal exudate cells (PECs) were isolated from the peritonea of 8–12-week-old C57BL/6 mice via a cavity rinse with ice-cold PBS. Cells were seeded in HEPES-buffered RPMI-1640 medium supplemented with 5% heat-inactivated FBS and antibiotics. The animals were from the animal facility of the Institute for Biological Research “Siniša Stanković” (IBISS) National Institute of the Republic of Serbia (Belgrade, Serbia). Animal handling was conducted and protocols were followed by the local Institutional Animal Care and Use Committee (IACUC) in accordance with local guidelines as well as European Community directives (EEC Directive of 1986; 86/609/EEC). The ethical approval number is 323-07-02147/2023-05.
(§1) The cells were treated with a range of CL, CC, and cisplatin concentrations for 72 h. At the end of the treatment, the cell viability was determined using MTT and crystal violet assays, as previously described. PECs were seeded at a density of 1.8 × 10^5 cells/well in 96-well plates, and two hours later, non-adherent cells were removed by washing the wells with PBS. The remaining adherent cells were treated the same way as the tumor cells. The PEC viability was estimated after 72 h of treatment using the CV assay only.

[2] = molecular target: T1, human serum albumin (HSA) (Homo sapiens, UniProt P02768); test: Spectrofluorimetric titration, HSA fluorescence quenching; assay type: binding; settings: for KSV (Stern–Volmer quenching constant) / kq (quenching rate constant): PBS, 2.0 µM HSA; for ΔH° of HSA binding / ΔS° of HSA binding: van't Hoff, 296–310 K
T1 construct: purchased Sigma-Aldrich
Experimental: The fluorescence spectroscopy method was used to examine the possible binding ways of human serum albumin (HSA) with the investigated compounds. […] The fluorescence of HSA was recorded at an excitation wavelength of 290 nm, while the recording range was set at 300–500 nm. The gradual decrease in the maximum emission intensity of the HSA with an increasing concentration of all investigated compounds was monitored at about 330 nm.
Fluorescence quenching parameters were determined using the Stern–Volmer equation (Equation (2)):(2) I0/I=1+kqτ0Q=1+KSVQ.
The notations in the previous equation include I0 and I as HSA fluorescence intensities in the absence and presence of the quencher, while KSV and kq are the Stern–Volmer quenching constant and the quenching rate constant of HSA, τ0 is the fluorophore lifetime of HSA (in the absence of the quencher), and [Q] is the concentration of the quencher. The binding constant (Kb) and the number of binding sites (n) were calculated using the Hill equation (Equation (3)):(3) logI0−I/I=logKb+nlogQ. where I0 and I represent the HSA fluorescence intensities in the absence and presence of the quencher, and [Q] is the concentration of the quencher.
The thermodynamic parameters ΔH°, ΔS°, and ΔG° were calculated using the following equations:(4) lnKb=−∆H^°/RT+∆S^°/R (5) ∆G^°=∆H^°−T∆S^°
To obtain information on the quenching, binding, and thermodynamic parameters for the interaction of the ligand and complex (CL and CC) towards human serum albumin (HSA), spectrofluorimetric investigations were carried out. All experiments were performed under physiological conditions in phosphate-buffered saline (PBS) and at different temperatures (296 K, 303 K, and 310 K).

HeLa cells = test: CFSE staining of cell proliferation, flow cytometry; assay type: cell-based, human; settings: IC50 dose, 72 h
Experimental: To analyze the distribution of cells in the different phases of the cell cycle using flow cytometry, cells were collected at the end of the treatment and processed as previously described. To detect the presence of apoptotic cells, the treated HeLa cells were double-stained with Annexin V-FITC/PI in Annexin V-binding buffer according to the manufacturer’s instructions. For caspase activation, cells were incubated with FITC-labeled pan-caspase inhibitor ApoStat (0.5 μg/mL) for 30 min at 37 °C. The cells were then washed, resuspended in PBS, and analyzed using flow cytometry. The effect of the compounds on cell proliferation was analyzed via CFSE staining using flow cytometry in the same manner as previously described. DAF-FM was used to determine the intracellular production of nitric oxide in the treated HeLa cells, DHE was used to detect intracellular superoxide and hydrogen peroxide, and DHR123 was used to detect the cumulative intracellular production of reactive oxygen species and nitrogen species. These assays were performed as described in previously published studies. All flow cytometry data were obtained in a CytoFLEX cytometer (Beckman Coulter, Brea, CA, USA) and analyzed using FlowJo software v10 (Tree Star, Ashland, OR, USA).

[3] = tested on: A2780 (human ovarian carcinoma cells); test: MTT viability assay, 72 h; assay type: cell-based; settings: A2780, 72 h, mean ± SD
Experimental: (§2) HeLa (human cervical adenocarcinoma cells), A2780 (human ovarian carcinoma cells), MCF7 (human breast adenocarcinoma cells), and HCT116 (human colorectal carcinoma cells) were purchased from American Type Culture Collection (ATCC, Rockville, MD, USA). HeLa, MCF-7, and HCT116 cells were cultivated in HEPES-buffered RPMI-1640, while A2780 cells were cultivated in DMEM. The media were supplemented with 10% heat-inactivated FBS and antibiotics (100 units/mL penicillin and 100 μg/mL streptomycin). The cells were grown at 37 °C in a humidified atmosphere with 5% CO2. For the viability assays, HeLa (3 × 10^3/well), A2780 (8 × 10^3/well), MCF7 (7 × 10^3/well), and HCT116 (6 × 10^3/well) cells were seeded in adherent flat-bottom 96-well plates. For the flow cytometric analyses, HeLa cells were seeded at 8 × 10^4 in 6-well plates.
as §1

[4] = tested on: HCT116 (human colorectal carcinoma cells); test: MTT viability assay, 72 h; assay type: cell-based; settings: HCT-116, HCT116, 72 h, mean ± SD
Experimental: as §2, §1

[5] = tested on: MCF7 (human breast adenocarcinoma cells); test: MTT viability assay, 72 h; assay type: cell-based; settings: MCF7, 72 h, mean ± SD
Experimental: as §2, §1

[6] = tested on: HeLa (human cervical adenocarcinoma cells); test: MTT viability assay, 72 h; assay type: cell-based; settings: mean ± SD of three experiments
Experimental: as §2, §1

[7] = tested on: A2780 (human ovarian carcinoma cells); test: Crystal violet (CV) viability assay, 72 h; assay type: cell-based; settings: A2780, 72 h, mean ± SD
Experimental: as §2, §1

[8] = tested on: HCT116 (human colorectal carcinoma cells); test: Crystal violet (CV) viability assay, 72 h; assay type: cell-based; settings: HCT-116, HCT116, 72 h, mean ± SD
Experimental: as §2, §1

[9] = tested on: MCF7 (human breast adenocarcinoma cells); test: Crystal violet (CV) viability assay, 72 h; assay type: cell-based; settings: MCF7, 72 h, mean ± SD
Experimental: as §2, §1

[10] = tested on: HeLa (human cervical adenocarcinoma cells); test: Crystal violet (CV) viability assay, 72 h; assay type: cell-based
Experimental: as §2, §1

T1 sequence (P02768 25-609): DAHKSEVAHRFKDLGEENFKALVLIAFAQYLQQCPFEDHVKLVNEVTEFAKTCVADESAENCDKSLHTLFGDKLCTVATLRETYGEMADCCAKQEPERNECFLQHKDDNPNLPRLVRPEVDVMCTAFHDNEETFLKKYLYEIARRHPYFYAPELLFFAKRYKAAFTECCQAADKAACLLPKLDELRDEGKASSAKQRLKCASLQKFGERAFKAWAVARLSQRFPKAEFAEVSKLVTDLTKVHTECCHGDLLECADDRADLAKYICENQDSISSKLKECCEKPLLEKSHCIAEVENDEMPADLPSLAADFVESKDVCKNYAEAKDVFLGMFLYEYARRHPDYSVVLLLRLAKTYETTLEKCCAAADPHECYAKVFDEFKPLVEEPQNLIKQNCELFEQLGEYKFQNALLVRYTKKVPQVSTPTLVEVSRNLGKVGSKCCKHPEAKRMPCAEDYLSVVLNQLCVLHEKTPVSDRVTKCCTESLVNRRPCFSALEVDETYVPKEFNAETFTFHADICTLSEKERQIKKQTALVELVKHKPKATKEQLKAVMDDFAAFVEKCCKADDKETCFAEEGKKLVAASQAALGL

Row | Compound | IC50 [1] [µM] | n (HSA), number of binding sites ([2]; 296 K) | ΔG° of HSA binding ([2]; 296 K) [kcal/mol] | KSV (Stern–Volmer quenching constant) ([2]; 296 K) [M⁻¹] | kq (quenching rate constant) ([2]; 296 K) | n (HSA), number of binding sites ([2]; 303 K) | ΔG° of HSA binding ([2]; 303 K) [kcal/mol] | KSV (Stern–Volmer quenching constant) ([2]; 303 K) [M⁻¹] | kq (quenching rate constant) ([2]; 303 K) [M⁻¹ s⁻¹] | n (HSA), number of binding sites ([2]; 310 K) | ΔG° of HSA binding ([2]; 310 K) [kcal/mol] | KSV (Stern–Volmer quenching constant) ([2]; 310 K) [M⁻¹] | kq (quenching rate constant) ([2]; 310 K) [M⁻¹ s⁻¹] | ΔH° of HSA binding [2] [kcal/mol] | ΔS° of HSA binding [2] [J mol^−1K^−1] | effect on proliferation of HeLa cells (CFSE) (HeLa cells) | further results
1 | COc1cc([N+]2=C(C)c3c(c4ccc(OC(C)=O)cc4oc3=O)[O][Pd-2]23[O]c2c(c(=O)oc4cc(OC(C)=O)ccc24)C(C)=[N+]3c2ccc(O)c(OC)c2)ccc1O [CC, Bis-3-(1-((4-hydroxy-3-methoxyphenyl)amino)ethylidene)-2,4-dioxochroman-7-yl acetate palladium(II) complex] | 92.9 | 1.07 | -7.921 | 295000 | 2.95e+13 M⁻¹ | 1.06 | -7.99 | 272000 | 2.72e+13 | 1.10 | -8.059 | 280000 | 2.8e+13 | -5.014 | −41.09 | does not inhibit the proliferation of HeLa cells | 
2 | COc1cc(N/C(C)=C2/C(=O)Oc3cc(OC(C)=O)ccc3C2=O)ccc1O [CL, (E)-3-(1-((4-hydroxy-3-methoxyphenyl)amino)ethylidene)-2,4-dioxochroman-7-yl acetate] | 96.3 | 0.66 | -4.515 | 95600 | 9.56e+12 M⁻¹ s⁻¹ | 0.71 | -5.533 | 76900 | 7.69e+12 | 1.09 | -6.551 | 72700 | 7.27e+12 | 38.535 | 608.51 | does not inhibit the proliferation of HeLa cells | IC50 [3]: 21.1 ± 1.4 µM; IC50 [4]: 54.4 ± 4.3 µM; IC50 [5]: 45.6 ± 3.5 µM; IC50 [6]: 11.1 ± 0.4 µM; IC50 [7]: 24.1 ± 1.4 µM; IC50 [8]: 60.2 ± 3.8 µM; IC50 [9]: 44 ± 1.7 µM; IC50 ([10]; CV assay, mean ± SD of three experiments, read-out: IC50 HeLa CV): 17.7 ± 1.2 µM; IC50 ([10]; rounded IC50 used as treatment dose, assay not stated (matches CV), read-out: IC50 values on HeLa cells as used for flow cytometry treatment): 17 µM
